The text below walks through data of patent US8304577B2, “Modulators of G protein-coupled receptor 88” (Bristol-Myers Squibb Company, priority 2009, dated 2012).

Chain of G protein-coupled receptor 88 (GPR88) (Q9GZN0 whole entry, species assumed): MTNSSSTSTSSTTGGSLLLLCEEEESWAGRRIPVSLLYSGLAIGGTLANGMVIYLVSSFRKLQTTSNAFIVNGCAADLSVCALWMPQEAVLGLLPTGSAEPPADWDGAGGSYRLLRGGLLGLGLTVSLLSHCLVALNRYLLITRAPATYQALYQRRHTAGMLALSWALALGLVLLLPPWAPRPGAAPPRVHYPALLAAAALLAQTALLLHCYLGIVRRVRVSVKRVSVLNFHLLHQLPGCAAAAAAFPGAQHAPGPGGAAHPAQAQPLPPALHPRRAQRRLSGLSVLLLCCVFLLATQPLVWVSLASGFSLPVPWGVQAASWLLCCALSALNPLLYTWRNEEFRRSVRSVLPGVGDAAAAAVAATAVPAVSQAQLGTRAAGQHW

For one experiment, the target named is G protein-coupled receptor 88 (GPR88) (Homo sapiens, UniProt Q9GZN0). Description: GPR88 functional assay: EC50 of Table 2 (GTPγS assay and cAMP HTRF assay described; table does not say which). In kind it is cell-based. Particulars: class symbol; read-out: Range (EC50). As for the experimental part:
96 well GTPγS assay plates were purchased from Perkin Elmer. Wheat Germ Agglutinin PVT SPA beads and ^35S-GTPγS were purchased from Amersham GDP, GTPγS and all buffer reagents were from Sigma. 384 well white NBS plates were purchased from corning. Pertussis toxin was purchased from Calbiochem. All cell culture reagents were purchased from Invitrogen. Forskolin was purchased from Sigma. The cAMP HTRF kit was purchased fron Cisbio International.
The GTPγS assay buffer consisted of 10 mM MgCl2, 180 mM NaCl, 200 uM GDP, 0.167 mg/mL DTT, 1 mM EGTA and 20 mM HEPES pH7.4. This buffer was used for dilution of membranes, beads, and ^35S GTPγS components. To each well of the 96 well assay plate 48 ul assay buffer, 2 ul of 100× compound, 50 ul membrane solution (0.2 ug/ul), 50 ul ^35S GTPγS solution (0.8 nM) and 50 ul of SPA beads (10 mg/mL). Non-specific binding was determined by the addition of cold GTPγS to control wells. The plates were sealed with clear sealing tape and incubated at room temperature for 1 hour. GTPγS activity was detected using a Wallac Micro-Beta Trilux liquid scintillation counter. Non-specific binding was determined using 10 uM cold GTPγS.
The cAMP HTRF assay is modified from the Cisbio International kit procedure 62AM4PEJ. Assay plates were prepared by stamping 0.1 ul of 100× compound stock solutions diluted in DMSO or DMSO alone into 384 well NBS plates. The cAMP HTRF assay was performed using cells in suspension. The cAMP HTRF assay buffer consisted of Hank's Balanced Salt Solution (HBSS), 2 mM CaCl2, 5 mM MgCl2, 20 mM HEPES and 1 mM 3-isobutyl-1-methylxanthine (IBMX) (added fresh at the time of assay). For pertussis toxin treatment pertussis toxin (100 ng/mL) was added to culture medium for 16 hours prior to assay. Confluent cells were disrupted with cell dissociation buffer count cells then centrifuged at 1000×g for 5 minutes. The cell pellet was resuspended in assay buffer alone for basal cAMP measurements or with 0.75 uM forskolin (added immediately prior to addition to wells) for addition to all other wells. Using a Multidrop 384 (Lab systems) 10 ul of cell suspension was added to each well containing compound or DMSO. The plates were incubated at room temperature for 30 minutes covered. During this time the cAMP standard curve was prepared as per manufacturer's instruction. At the end of the incubation 10 ul of anti-cAMP cryptate and 10 ul cAMP-XL, diluted in manufacturer's lysis buffer, were added to each well. The plated were incubated at room temperature for 60 minutes covered then read on an Envision plate reader (Perkin Elmer) and the 665 nm/620 nm fluorescence ratio determined Fluorescence ratio values were converted to molar cAMP concentrations from the standard curve using the GraphPad Prism program.
For orientation: Time-resolved FRET reads energy transfer from a long-lived donor to a nearby acceptor.
In the case of `CCCC(C)COc1ccc([C@H](CNC(=O)[C@@H](N)CCC)NC(=O)[C@@H](C)c2ccccc2)cc1` (stereo partly drawn) [Example 26, (2S)-2-Amino-N-((2R)-2-(4-(2-methylpentyloxy)phenyl)-2-((S)-2-phenylpropanamido)ethyl)pentanamide], the EC50 – broadly, the concentration that produces a half-maximal response – was in the range of 39 to 99 nM.
On the same count and under the same terms, as for `CCCC(C)COc1ccc([C@H](CNC(=O)[C@@H](N)[C@H](C)CC)NC(=O)[C@@H](C)c2ccccc2)cc1` (stereo partly drawn) [Example 27, (2S,3R)-2-Amino-3-methyl-N-((2R)-2-(4-(2-methylpentyloxy)phenyl)-2-((S)-2-phenylpropanamido)ethyl)pentanamide], the figure is 100 to 200 nM.
For `CCCC(C)COc1ccc([C@H](CNC(=O)[C@@H](N)CC2CC2)NC(=O)[C@@H](C)c2ccccc2)cc1` (stereo partly drawn) [Example 28, (2S)-2-Amino-3-cyclopropyl-N-((2R)-2-(4-(2-methylpentyloxy)phenyl)-2-((S)-2-phenylpropanamido)ethyl)propanamide], the 50% effective concentration (EC50) lay within 100 to 200 nM.
Take `CCCC(C)COc1ccc([C@H](CNC(=O)[C@@H](C)N)NC(=O)[C@@H](C)c2ccccc2)cc1` (stereo partly drawn) [Example 29, (2R)-2-Amino-N-((2R)-2-(4-(2-methylpentyloxy)phenyl)-2-((S)-2-phenylpropanamido)ethyl)propanamide]: the EC50 was in the range of 100 to 200 nM.
With `CCCC(C)COc1ccc([C@H](CNC(=O)[C@H](N)C2CC2)NC(=O)[C@@H](C)c2ccccc2)cc1` (stereo partly drawn) [Example 30, (2S)-N-((1R)-2-((R)-2-Amino-2-cyclopropylacetamido)-1-(4-(2-methylpentyloxy)phenyl)ethyl)-2-phenylpropanamide], the EC50 lay within 100 to 200 nM.
Take `CCCC(C)COc1ccc([C@H](CNC(=O)[C@H](N)CCC)NC(=O)[C@@H](C)c2ccccc2)cc1` (stereo partly drawn) [Example 31, (2R)-2-Amino-N-((2R)-2-(4-(2-methylpentyloxy)phenyl)-2-((S)-2-phenylpropanamido)ethyl)pentanamide]: the EC50 lay in the range of 100 to 200 nM.
Still for that read-out and setting: the figure for `CCCC(C)COc1ccc([C@H](CNC(=O)[C@@H](N)[C@@H](C)OC)NC(=O)[C@@H](C)c2ccccc2)cc1` (stereo partly drawn) [Example 32, (2S,3R)-2-Amino-3-methoxy-N-((2R)-2-(4-(2-methylpentyloxy)phenyl)-2-((S)-2-phenylpropanamido)ethyl)butanamide] is 100 to 200 nM; for `CCCC(C)COc1ccc([C@H](CNC(=O)[C@H](N)[C@@H](C)CC)NC(=O)[C@@H](C)c2ccccc2)cc1` (stereo partly drawn) [Example 33, (2R,3S)-2-Amino-3-methyl-N-((2R)-2-(4-(2-methylpentyloxy)phenyl)-2-((S)-2-phenylpropanamido)ethyl)pentanamide] it is 100 to 200 nM.
On to `CCCC(C)COc1ccc([C@H](CNC(=O)[C@H](N)Cc2cscn2)NC(=O)[C@@H](C)c2ccccc2)cc1` (stereo partly drawn) [Example 34, (2R)-2-Amino-N-((2R)-2-(4-(2-methylpentyloxy)phenyl)-2-((S)-2-phenylpropanamido)ethyl)-3-(thiazol-4-yl)propanamide], for which the EC50 was in the range of 100 to 200 nM.
As for `CCCC(C)COc1ccc([C@H](CN2CCOCC2)NC(=O)[C@@H](C)c2ccccc2)cc1` (stereo partly drawn) [Example 35, (2S)-N-((1R)-1-(4-(2-Methylpentyloxy)phenyl)-2-morpholinoethyl)-2-phenylpropanamide], the EC50 was in the range of 100 to 200 nM.
The same measure, in the same setting: as for `CC[C@H](C)COc1ccc([C@H](CN)NC(=O)[C@@H](C)c2ccccc2)cc1` [Example 37, (2S)-N-((1R)-2-Amino-1-[4-((S)-2-methylbutoxy)phenyl]-ethyl)-2-phenylpropionamide], the figure is 39 to 99 nM; as for `CCCNC[C@H](NC(=O)[C@@H](C)c1ccccc1)c1ccc(OC[C@@H](C)CC)cc1` [Example 38, (S)-N-{(R)-1-[4-((S)-2-Methyl-butoxy)-phenyl]-2-propylamino-ethyl}-2-phenylpropionamide], 100 to 200 nM; as for `CC[C@H](C)COc1ccc([C@@H](NC(=O)[C@@H](C)c2ccccc2)[C@@H](C)O)cc1` [Example 39, (S)-N-{(1R,2R)-2-Hydroxy-1-[4-((S)-2-methyl-butoxy)-phenyl]-propyl}-2-phenylpropionamide], 100 to 200 nM.

Still in this experiment, the particulars now being: exact value given; read-out: Range (EC50).
`CC(C)COc1ccc([C@@H](NC(=O)[C@@H](C)c2ccccc2)[C@H]2CCCN2)cc1` [Example 40, (S)-N-((R)-(4-Isobutoxyphenyl)((R)-pyrrolidin-2-yl)methyl)-2-phenylpropanamide]: the EC50 came to 254 nM.
